Results from US20240116856A1 (Young BioPharma, LLC, priority 2020, published 2024).
Several values for one entry are separate records, joined by “and”; a condition that tells them apart may be missing. Equal values may be shown once. Entries after “also recorded” stand apart in the source; their conditions may differ. Read-outs that look alike come from different tables or passages of the source. Values belong to the molecule of their own block, whether it stands above or below them.

Experiments:
Mouse plasma stability = conditions: C57BL6 mouse plasma; 2 μM (YB-2), 5 μM (controls)
TRPV1 [1] = target: TRPV1 (Rattus norvegicus, UniProt O35433); conditions: read-out: EC50 in Ca2+ influx assay, cited from earlier work
[2] = literature; cited from earlier work
human TRPV3 = target: T1, human TRPV3 (Homo sapiens, UniProt Q8NET8); assay: In vitro Ca2+ flux counter-screen in human TRPV3 overexpressing cells; assay type: cell-based; conditions: counter-screen; read-out: TRPV3 EC50
T1 construct: expressed in transfected cells; host or cells: overexpressing cells
T1 sequence (Q8NET8 1-790): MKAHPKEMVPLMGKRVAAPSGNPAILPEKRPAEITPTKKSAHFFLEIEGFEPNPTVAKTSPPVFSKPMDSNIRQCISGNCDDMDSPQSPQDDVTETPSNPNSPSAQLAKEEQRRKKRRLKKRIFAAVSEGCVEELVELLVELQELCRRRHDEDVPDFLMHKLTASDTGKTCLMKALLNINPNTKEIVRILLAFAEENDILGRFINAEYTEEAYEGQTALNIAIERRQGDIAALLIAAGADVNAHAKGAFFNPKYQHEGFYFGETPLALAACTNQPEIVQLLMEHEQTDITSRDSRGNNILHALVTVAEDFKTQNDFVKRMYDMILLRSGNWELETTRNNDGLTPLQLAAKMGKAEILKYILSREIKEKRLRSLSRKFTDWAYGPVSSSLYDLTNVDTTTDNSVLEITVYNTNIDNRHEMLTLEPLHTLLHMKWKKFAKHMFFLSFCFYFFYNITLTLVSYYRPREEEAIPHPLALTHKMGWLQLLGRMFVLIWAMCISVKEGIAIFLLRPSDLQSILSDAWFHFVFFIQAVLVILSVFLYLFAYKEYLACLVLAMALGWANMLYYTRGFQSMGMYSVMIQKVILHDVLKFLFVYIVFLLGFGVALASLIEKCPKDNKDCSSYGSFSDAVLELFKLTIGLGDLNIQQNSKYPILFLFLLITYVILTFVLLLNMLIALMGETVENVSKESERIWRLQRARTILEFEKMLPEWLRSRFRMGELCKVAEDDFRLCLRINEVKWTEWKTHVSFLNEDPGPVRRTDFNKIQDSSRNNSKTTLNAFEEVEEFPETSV

human TRPA1 = target: T2, human TRPA1 (Homo sapiens, UniProt O75762); assay: In vitro Ca2+ flux counter-screen in human TRPA1 overexpressing cells; assay type: cell-based; conditions: counter-screen; read-out: TRPA1 EC50
T2 construct: expressed in transfected cells; host or cells: overexpressing cells

MDA-MB-231 = assay: Human cancer cell growth inhibition assay (ATP assay), MDA-MB-231; assay type: cell-based; conditions: for IC50: Homo sapiens, MDA-MB-231, 96 h, 4 days, Means±SEM from three independent experiments, read-out: MDA-MB-231, IC50
NCI-H460 = assay: Human cancer cell growth inhibition assay (ATP assay), NCI-H460; assay type: cell-based; conditions: for IC50: Homo sapiens, NCI-H460, 96 h, 4 days, Means±SEM from three independent experiments, read-out: NCl-H460, IC50
OVCAR-8 = assay: Human cancer cell growth inhibition assay (ATP assay), OVCAR-8; assay type: cell-based; conditions: for IC50: Homo sapiens, OVCAR-8, 96 h, 4 days, Means±SEM from three independent experiments, read-out: OVCAR-8, IC50
MDA-MB-231 cell invasion = assay: Cancer cell invasion assay, MDA-MB-231; assay type: cell-based, human; conditions: for inhibition of MDA-MB-231 cell invasion: 24 h
Protocol: (§1) A cancer cell invasion assay was developed based on literature protocols (Methods 2005, 37, 208; EMBO J 2002, 21, 6289; Cellular Signalling 2012, 24, 1276.). Membrane matrix gel (Cat #A1413201, ThermoFisher) was diluted in ice-cold, serum-free RPMI 1640 Medium (Cat #31800022, ThermoFisher) at a concentration of 0.5-0.6 mg/mL. Then it was added to the upper compartment (100 μL per cup) of millicell inserts (Cat #PI8P01250, ThermoFisher) placed in a 24-well plate (Part no. 229123, Celltreat). The plate was incubated at 37° C. for 2 h to allow the liquid gel to solidify. RPMI 1640 Medium supplemented with 10% FBS (300 μL) was added to the well of the plate (lower compartment) as attractant, then DMSO or compounds were added. Human cancer cells (1×10^5 cells in 200 μL of RPMI 1640 Medium) were added to the upper compartment of the insert, then DMSO or compounds were added. After the plate was incubated at 37° C. for 24 h, the cells were fixed on the lower side of the insert membrane with 4% formaldehyde and stained with 1% crystal violet (Part no. IS12146, Innovating Science). The invaded cells on the lower side of the filter were counted under an inverted microscope equipped with either a 4× or a 10× objective (FIG. 11). The cell numbers from 5 random views were averaged and plotted as percentage against the DMSO control (FIG. 12A).

NCI-H460 cell invasion = assay: Cancer cell invasion assay, NCI-H460; assay type: cell-based, human; conditions: for inhibition of NCI-H460 cell invasion: 24 h
Protocol: as §1

OVCAR-8 cell invasion = assay: Cancer cell invasion assay, OVCAR-8; assay type: cell-based, human
Protocol: as §1

[3] = tested on: Src protein activation in MDA-MB-231 cells; assay: Cancer cell immunocytochemistry assay, Phospho-Src (Y416), MDA-MB-231; assay type: cell-based, human
Protocol: (§2) Human cancer cells (15,000 cells/well) in 96 well half area microplate (Cat #3882, Corning) were incubated overnight at 37° C., then compounds or DMSO control were added to the cell culture and incubated at 37° C. for 1-6 h. The cells were sequentially fixed with 4% formalin, permeabilized with 0.5% Triton X-100, blocked with 5% BSA in PBS, incubated with Human Phospho-Src (Y416) Antibody (Cat #MAB2685, R&D Systems) at rt for 2 h, incubated with the secondary antibody Goat Ant-Rabbit IgG H&L (Alexa Fluor 488) (Cat #ab150077, abeam) for 45 min, and incubated with DAPI (Cat #D9542, Sigma-Aldrich) for 5 min. Finally, the cells were washed and covered with PBS. The cell images were visualized on an inverted fluorescence microscope (Leica DMIL Fluorescent Inverted Microscope with Digital Camera, Leica Microsystems). Pictures were taken [FIGS. 14A-C. Green: Human Phospho-Src (Y416), the activated form of the Src protein; Blue: DAPI (stain nucleus of cell)]. The fluorescence intensity values from 5 random cells were averaged, subtracted by the background value (area between cells) and the blank value [the blank control without the Human Phospho-Src (Y416) Antibody], then plotted as percentage against the DMSO control to indicate the effects of compound treatment on the cellular Src kinase phosphorylation levels in the cancer cells (FIGS. 15A-D).

[4] = tested on: Src protein activation in NCI-H460 cells; assay: Cancer cell immunocytochemistry assay, Phospho-Src (Y416), NCI-H460; assay type: cell-based, human
Protocol: as §2

[5] = tested on: Src protein activation in OVCAR-8 cells; assay: Cancer cell immunocytochemistry assay, Phospho-Src (Y416), OVCAR-8; assay type: cell-based, human
Protocol: as §2

OVCAR-8 ovarian tumor = assay: OVCAR-8 intraperitoneal xenograft in athymic nude mice; assay type: in vivo
Protocol: OVCAR-8 cells expressing red fluorescent protein were xenografted intraperitoneally in athymic nude mice to form tumors (Mol Cancer Ther 2020, 19, 89). After 4 weeks, mice were dosed with YB-1 or vehicle control (10% N-Methylpyrrolidone-72% PEG400—18% water) for 2 weeks (dosage: 5 mg/kg; ip treatment twice per week). As shown in FIGS. 16A-B, compared to vehicle group, animals treated with YB-1 for 2 weeks had 40% less tumor burden based on average radiant efficiency measured with IVIS and reduced approximately half of the body weight loss (7% average body weight loss for YB-1 treatment group vs. 13% average body weight loss for vehicle group).

human TRPV1 = target: T3, human TRPV1 (Homo sapiens, UniProt Q8NER1); assay: In vitro Ca2+ flux assay in human TRPV1 transfected HEK 293 cells; assay type: cell-based; conditions: Means±SEM from three independent experiments; read-out: TRPV1 EC50
T3 construct: DYK (FLAG) tag from vector pcDNA3.1+/C-(K)DYK (C); host or cells: FreeStyle 293-F cells (HEK 293), transient transfection

TRPV1 [6] = target: T4, TRPV1 (Mus musculus, UniProt Q704Y3); assay: Ca2+ imaging of primary mouse dorsal root ganglion (DRG) neurons, TRPV1 desensitization; assay type: cell-based; conditions: then capsaicin 0.5 μM
T4 construct: DRG was isolated from male and female mice expressing GCaMP6f in neurons; endogenous in cells; host or cells: dissociated primary DRG neurons from GCaMP6f-expressing mice

[7] = both, mouse, in vivo, 1 min
[8] = intraplantar
[9] = YB-1 15 μM, capsaicin 50 μM, 1-6 h
[10] = 5 mg/kg ip twice per week for 2 weeks
[11] = first treatment capsaicin 0.5 μM, YB-11 0.5 μM or YB-16 1.0 μM, paired t-test

T3 sequence (Q8NER1 whole entry): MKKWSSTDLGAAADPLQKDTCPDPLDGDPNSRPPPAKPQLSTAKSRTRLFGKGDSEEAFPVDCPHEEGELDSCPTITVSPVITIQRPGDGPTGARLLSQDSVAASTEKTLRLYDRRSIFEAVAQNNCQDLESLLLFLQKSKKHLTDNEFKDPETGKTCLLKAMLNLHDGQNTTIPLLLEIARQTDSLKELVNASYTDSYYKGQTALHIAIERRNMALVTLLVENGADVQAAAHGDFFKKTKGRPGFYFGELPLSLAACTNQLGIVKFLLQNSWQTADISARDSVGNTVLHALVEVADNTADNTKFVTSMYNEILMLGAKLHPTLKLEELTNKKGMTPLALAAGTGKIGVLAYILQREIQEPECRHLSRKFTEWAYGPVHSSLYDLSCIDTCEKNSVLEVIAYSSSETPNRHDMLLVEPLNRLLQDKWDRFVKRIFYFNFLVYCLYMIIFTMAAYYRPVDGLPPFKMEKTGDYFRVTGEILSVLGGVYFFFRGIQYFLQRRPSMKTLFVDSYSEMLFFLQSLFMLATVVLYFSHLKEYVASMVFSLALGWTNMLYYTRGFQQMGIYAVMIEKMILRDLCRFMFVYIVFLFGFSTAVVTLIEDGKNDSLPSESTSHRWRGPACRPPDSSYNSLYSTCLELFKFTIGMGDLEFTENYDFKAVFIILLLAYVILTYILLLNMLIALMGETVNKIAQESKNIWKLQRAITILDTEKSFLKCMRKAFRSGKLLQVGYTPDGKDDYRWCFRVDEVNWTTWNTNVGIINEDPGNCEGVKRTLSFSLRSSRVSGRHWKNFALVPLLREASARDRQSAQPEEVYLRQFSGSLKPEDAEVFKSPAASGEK
T2 sequence (O75762 whole entry): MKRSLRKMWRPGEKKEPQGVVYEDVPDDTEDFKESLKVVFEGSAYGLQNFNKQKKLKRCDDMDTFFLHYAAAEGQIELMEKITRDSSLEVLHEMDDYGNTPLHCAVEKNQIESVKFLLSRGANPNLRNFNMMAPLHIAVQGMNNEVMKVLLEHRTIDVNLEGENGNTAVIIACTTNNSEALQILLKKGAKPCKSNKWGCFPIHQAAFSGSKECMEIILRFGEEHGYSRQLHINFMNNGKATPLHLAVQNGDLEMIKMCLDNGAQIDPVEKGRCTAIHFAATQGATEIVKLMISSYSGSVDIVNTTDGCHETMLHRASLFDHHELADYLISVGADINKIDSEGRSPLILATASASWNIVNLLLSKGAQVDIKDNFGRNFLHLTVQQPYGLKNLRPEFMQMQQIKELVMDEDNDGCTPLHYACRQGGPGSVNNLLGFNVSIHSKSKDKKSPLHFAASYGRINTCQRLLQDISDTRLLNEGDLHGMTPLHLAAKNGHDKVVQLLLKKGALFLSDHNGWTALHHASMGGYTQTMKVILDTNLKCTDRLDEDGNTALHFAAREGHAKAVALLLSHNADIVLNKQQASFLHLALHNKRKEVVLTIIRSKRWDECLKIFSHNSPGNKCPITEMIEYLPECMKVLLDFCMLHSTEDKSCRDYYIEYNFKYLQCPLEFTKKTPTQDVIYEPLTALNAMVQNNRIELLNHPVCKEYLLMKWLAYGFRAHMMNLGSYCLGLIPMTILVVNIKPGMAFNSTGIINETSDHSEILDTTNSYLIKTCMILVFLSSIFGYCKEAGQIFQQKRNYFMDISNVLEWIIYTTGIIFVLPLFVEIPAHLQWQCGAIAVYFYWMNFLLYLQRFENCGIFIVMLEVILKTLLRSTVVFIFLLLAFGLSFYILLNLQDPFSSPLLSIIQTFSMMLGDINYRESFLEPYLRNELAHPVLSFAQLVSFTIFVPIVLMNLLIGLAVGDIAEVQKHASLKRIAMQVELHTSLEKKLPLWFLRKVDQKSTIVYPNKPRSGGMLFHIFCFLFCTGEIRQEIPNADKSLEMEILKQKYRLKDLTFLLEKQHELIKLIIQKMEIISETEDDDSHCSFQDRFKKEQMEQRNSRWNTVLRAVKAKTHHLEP
T4 sequence (Q704Y3 whole entry): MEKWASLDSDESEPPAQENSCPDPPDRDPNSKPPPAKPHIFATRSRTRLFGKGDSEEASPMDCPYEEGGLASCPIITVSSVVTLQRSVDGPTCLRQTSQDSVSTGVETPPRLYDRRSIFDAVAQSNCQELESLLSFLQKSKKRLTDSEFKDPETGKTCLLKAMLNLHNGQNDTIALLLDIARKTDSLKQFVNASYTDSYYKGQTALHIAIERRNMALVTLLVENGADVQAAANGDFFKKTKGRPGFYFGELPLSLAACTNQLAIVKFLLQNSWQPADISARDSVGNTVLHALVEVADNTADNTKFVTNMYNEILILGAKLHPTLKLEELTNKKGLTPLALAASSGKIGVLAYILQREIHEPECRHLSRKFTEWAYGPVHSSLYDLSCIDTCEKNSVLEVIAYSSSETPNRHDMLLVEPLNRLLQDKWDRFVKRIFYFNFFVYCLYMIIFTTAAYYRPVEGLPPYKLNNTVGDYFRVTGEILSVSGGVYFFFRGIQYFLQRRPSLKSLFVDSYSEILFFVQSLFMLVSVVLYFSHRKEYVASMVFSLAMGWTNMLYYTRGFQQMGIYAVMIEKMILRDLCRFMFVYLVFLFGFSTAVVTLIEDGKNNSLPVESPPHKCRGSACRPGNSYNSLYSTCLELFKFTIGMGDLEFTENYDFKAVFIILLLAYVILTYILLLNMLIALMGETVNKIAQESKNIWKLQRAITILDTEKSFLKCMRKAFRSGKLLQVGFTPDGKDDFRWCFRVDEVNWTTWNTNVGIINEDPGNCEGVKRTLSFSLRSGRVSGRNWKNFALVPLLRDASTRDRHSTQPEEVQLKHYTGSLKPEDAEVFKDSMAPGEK
Chain of TRPV1 (Rattus norvegicus, UniProt O35433) (O35433 whole entry): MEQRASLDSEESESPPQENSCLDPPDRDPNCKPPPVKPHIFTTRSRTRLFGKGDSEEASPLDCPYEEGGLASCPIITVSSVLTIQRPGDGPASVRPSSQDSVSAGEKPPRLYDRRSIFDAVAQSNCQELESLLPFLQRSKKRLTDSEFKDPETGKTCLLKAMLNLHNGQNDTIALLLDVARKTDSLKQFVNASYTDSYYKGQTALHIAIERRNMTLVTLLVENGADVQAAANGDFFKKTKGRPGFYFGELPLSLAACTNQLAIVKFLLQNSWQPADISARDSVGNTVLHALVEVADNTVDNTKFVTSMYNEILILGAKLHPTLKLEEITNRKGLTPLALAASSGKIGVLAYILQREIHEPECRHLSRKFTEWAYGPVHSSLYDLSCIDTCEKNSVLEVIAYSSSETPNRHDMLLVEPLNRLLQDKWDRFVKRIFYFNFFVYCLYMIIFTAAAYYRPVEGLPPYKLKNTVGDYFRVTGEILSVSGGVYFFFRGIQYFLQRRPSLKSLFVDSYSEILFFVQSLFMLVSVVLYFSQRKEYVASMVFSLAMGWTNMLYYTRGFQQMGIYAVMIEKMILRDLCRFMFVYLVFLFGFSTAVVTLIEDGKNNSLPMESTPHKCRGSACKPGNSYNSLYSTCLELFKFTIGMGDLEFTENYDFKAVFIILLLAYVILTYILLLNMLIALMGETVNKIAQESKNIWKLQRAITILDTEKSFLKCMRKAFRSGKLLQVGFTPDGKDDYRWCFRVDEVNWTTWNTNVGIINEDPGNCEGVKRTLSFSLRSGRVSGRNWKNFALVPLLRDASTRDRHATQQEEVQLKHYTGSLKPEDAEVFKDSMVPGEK

EC50 (human TRPV3): > 10 µM
EC50 (human TRPA1): > 10 µM
IC50 (MDA-MB-231): 38 µM
IC50 (NCI-H460): 11 µM
IC50 (OVCAR-8): 38 µM
SMILES: COc1cc(CNC(=O)CCCC/C=C/C(C)C)ccc1NC(=O)CCCC/C=C/C(C)C [YB-1]
potency in growth inhibition compared to capsaicin (MDA-MB-231; MDA-MB-231 cell line): 10 fold
potency in growth inhibition compared to capsaicin (NCI-H460; NCI-H460 cell line): 18 fold
potency in growth inhibition compared to capsaicin (OVCAR-8; OVACR-8 cell line): 6 fold
inhibition of MDA-MB-231 cell invasion (MDA-MB-231 cell invasion): dose-dependently inhibited
potency in inhibiting cell invasion compared to capsaicin (MDA-MB-231 cell invasion; MDA-MB-231): about 4 fold
inhibition of NCI-H460 cell invasion (NCI-H460 cell invasion): dose-dependently inhibited
potency in inhibiting cell invasion compared to capsaicin (NCI-H460 cell invasion; NCI-H460): ~10 fold
inhibition of OVCAR-8 cell invasion (OVCAR-8 cell invasion; 24 h): dose-dependently inhibited
potency in inhibiting cell invasion compared to capsaicin (OVCAR-8 cell invasion; OVCAR-8): ~3 fold
potency in inhibiting Src protein activation compared to capsaicin [3]: at least 3 fold
cellular Src kinase phosphorylation levels [3, 9]: time-dependently reduced the cellular Src kinase phosphorylation levels
potency in inhibiting Src protein activation compared to capsaicin [4]: at least 3 fold
cellular Src kinase phosphorylation levels [4, 9]: time-dependently reduced the cellular Src kinase phosphorylation levels
potency in inhibiting Src protein activation compared to capsaicin [5]: at least 3 fold
cellular Src kinase phosphorylation levels [5, 9]: time-dependently reduced the cellular Src kinase phosphorylation levels
average body weight loss (OVCAR-8 ovarian tumor; [10]): 7%
less tumor burden compared to vehicle group (average radiant efficiency, IVIS) (OVCAR-8 ovarian tumor; [10]): 40%
tumor burden in vivo (OVCAR-8 ovarian tumor; FIG. 16): reduces tumor burden in vivo

EC50 (human TRPV3): > 10 µM
EC50 (human TRPA1): > 10 µM
IC50 (MDA-MB-231): 75 ± 20 µM
IC50 (NCI-H460): 65 ± 15 µM
IC50 (OVCAR-8): 34 ± 12 µM
SMILES: COc1cc(CNC(=O)CCCC/C=C/C(C)C)ccc1NC(C)=O [YB-9]
inhibition of MDA-MB-231 cell invasion (MDA-MB-231 cell invasion): dose-dependently inhibited
inhibition of NCI-H460 cell invasion (NCI-H460 cell invasion): dose-dependently inhibited the NCI-H460 cell invasion from 15 μM to 60 μM
cellular Src kinase phosphorylation levels ([3]; at about 40% of IC50 concentration from cell growth inhibition assay, 4 h): significantly reduced the cellular Src kinase phosphorylation levels

The remaining lines, values behind:

SMILES: CC[C@H](C)C(=O)O[C@H]1C[C@@H](C)C=C2C=C[C@H](C)[C@H](CC[C@@H]3C[C@@H](O)CC(=O)O3)[C@H]21 [Lovastatin]
% Remaining at T120 (Mouse plasma stability): 0.2%
T1/2 (Mouse plasma stability): 12 min

SMILES: CCCCCCCCC(=O)NCc1ccc(N)c(OC)c1 [N-[(4-amino-3-methoxyphenyl)methyl]-Nonanamide]
EC50 (TRPV1 [1]; as reported in literature): > 10 µM

SMILES: CC(C)[N+](C)(CCOC(=O)C1c2ccccc2Oc2ccccc21)C(C)C [Propantheline]
% Remaining at T120 (Mouse plasma stability): 20%
T1/2 (Mouse plasma stability): 55 min

SMILES: C=C(C)[C@]12C[C@@H](C)[C@@]34O[C@](Cc5ccccc5)(O[C@@H]1[C@@H]3C=C(COC(=O)Cc1ccc(O)c(OC)c1)C[C@]1(O)C(=O)C(C)=C[C@@H]41)O2 [Resiniferatoxin (RTX), Resiniferatoxin]
solubility in water [2]: insoluble in water

SMILES: COc1cc(CC(=O)N/C=C/c2ccc(C(F)(F)F)cc2)ccc1O [YB-11]
EC50 (human TRPV1): < 0.1 µM and 0.012 to 0.048 µM and 0.012 µM
EC50 (human TRPV3): > 10 µM
EC50 (human TRPA1): > 10 µM
TRPV1-sensitive neurons showing desensitization (TRPV1 [6]; first treatment 0.5 μM): 67%
area under the curve of the Ca2+ signal of the second (capsaicin) application (TRPV1 [6]; [11]): statistically significant reduction; also recorded: significantly reduced
max Ca2+ signal of the second (capsaicin) application (TRPV1 [6]; [11]): statistically significant reduction; also recorded: significantly reduced
IC50 (MDA-MB-231): 129 ± 21 µM
IC50 (NCI-H460): 87 ± 10 µM
IC50 (OVCAR-8): 65 µM
inhibition of MDA-MB-231 cell invasion (MDA-MB-231 cell invasion): dose-dependently inhibited
MPP [7]: 0.101 mg/mL
animal death and sedation in formalin test [8]: No mice treated with YB-16, YB-11 or YB-2 died or experienced sedative reaction
reduction of formalin first phase behavior ([8]; 10 g, 2 hr prior to formalin): 36%

SMILES: COc1cc(CN(C)C(=O)CCCCC=CC(C)C)ccc1O [capsaicin analog 3d]
EC50 (TRPV1 [1]): > 100 µM
